In patent publication US8546613B2, “SGK1 inhibitors for the prophylaxis and/or therapy of viral diseases and/or carcinomas” (priority 2008, dated 2013):

How the values were obtained:
colon carcinomas = assay: Chemically induced (DMH/DSS) colon carcinomas in mice; type: in vivo; conditions: DMH/DSS-induced tumour genesis; 4.46 mg/g of feed (approx. 600 mg/kg) for 20 days, one week after the treatment; vs placebo
Protocol: To this end, colon tumours were induced chemically in the experimental animals (Wang J G, Wang D F, Lv B J, Si J M: A novel mouse model for colitis-associated colon carcinogenesis induced by 1,2-dimethylhydrazine and dextran sulfate sodium. World J Gastroenterol 2004; 10:2958-2962). Some of the experimental animals were subjected to three cycles of chemical tumour genesis at an age of 8 weeks. To this end, the animals were treated intraperitoneally with 20 mg/kg of 1,2-dimethylhydrazine (DMH; Sigma-Aldrich Corporation. St. Louis. Mo. USA). Starting one week later, distilled water containing 30 g/l of synthetic dextran sulfate sodium (DSS; molecular weight 5000; Wako Pure Chemical Industries Ltd. Japan) was administered to the animals three times for 7 days and distilled water was administered for a further 14 days (total duration 3×(1+2 weeks)=9 weeks in total). The remainder of the experimental animals (control animals) were instead supplied intraperitoneally by injection with 20 mg/kg of a 0.9% sodium chloride solution. All mice were anaesthetised with ether at the age of 22 weeks and subsequently killed.
One week after the treatment, either a placebo or the SGK1 inhibitor was administered for 20 days. The SGK1 inhibitor had been added to the feed in a mixing ratio of 4.46 mg/g of feed. This corresponds to an approximate dose of 600 mg/kg of body weight.

LCMV = tested on: LCMV; parameters: species or system mice; conditions: mouse, in vivo
SGK1 protein kinase = biological target: T1, SGK1 protein kinase (Homo sapiens, UniProt O00141); assay: SGK1 protein kinase inhibition, filter binding method; type: biochemical; conditions: read-out: SGK1 enzyme inhibition IC50
T1 sequence (O00141 1-431): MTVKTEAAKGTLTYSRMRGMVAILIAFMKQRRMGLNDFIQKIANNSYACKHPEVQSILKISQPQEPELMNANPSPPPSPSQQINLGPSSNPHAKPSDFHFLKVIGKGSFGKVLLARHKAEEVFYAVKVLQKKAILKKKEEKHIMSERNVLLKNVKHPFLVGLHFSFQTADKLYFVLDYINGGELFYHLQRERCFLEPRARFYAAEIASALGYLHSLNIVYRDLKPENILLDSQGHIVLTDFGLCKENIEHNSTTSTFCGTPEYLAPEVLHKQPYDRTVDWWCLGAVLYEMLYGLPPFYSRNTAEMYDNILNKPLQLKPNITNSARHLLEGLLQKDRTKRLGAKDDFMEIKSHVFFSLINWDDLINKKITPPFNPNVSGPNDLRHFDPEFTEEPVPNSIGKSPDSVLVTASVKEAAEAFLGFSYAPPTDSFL
Excerpt: Further assays are known from the literature and could easily be carried out by the person skilled in the art (see, for example, Dhanabal et al., Cancer Res. 59:189-197; Xin et al., J. Biol. Chem. 274:9116-9121; Sheu et al., Anticancer Res. 18:4435-4441; Ausprunk et al., Dev. Biol. 38:237-248; Gimbrone et al., J. Natl. Cancer Inst. 52:413-427; Nicosia et al., In Vitro 18:538-549).
The inhibition of SGK1 protein kinase can be determined in the filter binding method.

CCc1c(C(=O)NNC(=O)C(O)c2cc(F)cc(F)c2)ccc(O)c1C (racemic) [I, N′-[2-(3,5-Difluorophenyl)-2-hydroxyacetyl]-2-ethyl-4-hydroxy-3-methylbenzohydrazide]
growth of colon tumours (colon carcinomas): significantly inhibited | bilirubin concentration (LCMV): significantly reduced | concentration of alanine aminotransferase (LCMV): significantly reduced | IC50 (SGK1 protein kinase): > 300 nM

CCc1c(C(=O)NNC(=O)[C@@H](O)c2cc(F)cc(F)c2)ccc(O)c1C [Ia, N′-[(S)-2-(3,5-Difluorophenyl)-2-hydroxyacetyl]-2-ethyl-4-hydroxy-3-methylbenzohydrazide]
IC50 (SGK1 protein kinase): > 300 nM
